Experimental data reported in patent US12606795B2 (Thankcome Biological Science and Technology (SuZhou) Co., …, priority 2023, dated 2026).

Key:
[1] = test system: Escherichia coli WP2 uvrA; conditions: Escherichia coli WP2A uvr −S9
Experimental: (§1) Bacterial strains used were Salmonella typhimurium TA97a (National Center for Type Culture Collection NTCC, 506391), S. typhimurium TA98 (NTCC, 506392), S. typhimurium TA100 (NTCC, 506395), S. typhimurium TA1535 (NTCC, 506396), and Escherichia coli WP2 uvrA (CHI Scientific, Co., Ltd., product number: 6-1705). To prepare a drug delivery formulation, distilled water was used as a carrier to prepare a suspension (100 mg/mL) for a test item. […] Therefore, bacteria in samples for the test item were removed by a mechanical means. In the process of mixing the formulation, any soluble components for the test item was dissolved in the carrier, and then, residual bacteria were removed by centrifugation (4° C.; 8000 rpm; 10 min). After centrifugation, liquid supernatant was removed and sterile filtration was performed with a 0.22 μm filter.
(§2) In the confirmatory mutation research, detection was performed at 15.81, 50, 158.1, 500, 1581, and 5000 μg/plate. The maximum concentration was recommended by current regulations and guidelines. […] The survival rate of test bacterial cells was checked through plate experiments in each test. If there is a dosage-related increase in the number of revertants, it is considered that the test item has mutagenicity, and/or a reproducible biology-related positive reaction targeting at least one dosage group occurs in at least one strain with or without metabolic activation.

S. typhimurium TA100 = conditions: TA100 −S9
Experimental: as §1, §2

COS(C)(=O)=O [Positive control 2, methyl methylsulfonate]
Number of revertant mutants per plate (mean ± standard deviation) [1]: 613.40 | Number of revertant mutants per plate (mean ± standard deviation) (S. typhimurium TA100): 1347.00
